# Experimental data published in patent publication US11779585B2 (priority 2020, dated 2023).
# Values joined by “and” are separate entries in the source; they are usually repeats but may differ in a detail not shown here. Equal entries are not always repeated. Where two headings read alike, the source gives them in different places.
# What was measured:
# SARS-CoV2 = assay: microbe, parasite or virus in culture; type: cell-based, SARS-CoV-2
# Vero E6 cells = conditions: hydrochloride
# 2019-nCoV = conditions: Wang et al., not in Table 7; cited from earlier work
# SARS-CoV = conditions: Dyall et al.; cited from earlier work
# MERS-CoV = conditions: Dyall et al.; cited from earlier work
# [1] = Severe acute respiratory syndrome coronavirus 2, Vero C1008
compound,measurement,setting,value
"Cl.NC(=O)c1cn([C@@H]2O[C@H](CO)[C@@H](O)[C@H]2O)c2ncnc(N)c12 [Oya2, 4-amino-7-((2R,3R,4S,5R)-3,4-dihydroxy-5-(hydroxymethyl)tetrahydrofuran-2-yl)-7H-pyrrolo[2,3-d]pyrimidine-5-carboxamide hydrochloride]",Inhibition,"SARS-CoV2; 0.0047 μM, MOI 0.6, Plate 2, hydrochloride",6.759% and 2.316%
same,Inhibition,"SARS-CoV2; 0.0047 μM, title MOI 0.6 (text MOI 1.3), Plate 1, hydrochloride",−4.548% and −2.306% and −5.003%
same,Inhibition,"SARS-CoV2; 0.0047 μM, title MOI 0.6 (text MOI 1.3), Plate 2, hydrochloride",−12.4801% and −9.091%
same,Inhibition,"SARS-CoV2; 0.0094 μM, MOI 0.6, Plate 2, hydrochloride",22.21%
same,Inhibition,"SARS-CoV2; 0.0094 μM, title MOI 0.6 (text MOI 1.3), Plate 2, hydrochloride",−4.5066% and −0.5728% and 3.754%
same,Inhibition,"SARS-CoV2; 0.0188 μM, MOI 0.6, Plate 2, hydrochloride",9.743% and 4.635%
same,Inhibition,"SARS-CoV2; 0.0188 μM, title MOI 0.6 (text MOI 1.3), Plate 1, hydrochloride",1.888% and −0.5178% and 4.439%
same,Inhibition,"SARS-CoV2; 0.0375 μM, MOI 0.6, Plate 1, hydrochloride",12.21% and 2.813% and 5.217%
same,Inhibition,"SARS-CoV2; 0.0375 μM, MOI 0.6, Plate 2, hydrochloride",−1.2509% and −10.9963%
same,Inhibition,"SARS-CoV2; 0.0375 μM, title MOI 0.6 (text MOI 1.3), Plate 2, hydrochloride",9.292% and 6.13%
same,Inhibition,"SARS-CoV2; 0.075 μM, MOI 0.6, Plate 1, hydrochloride",48.8% and 30.54%
same,Inhibition,"SARS-CoV2; 0.075 μM, MOI 0.6, Plate 2, hydrochloride",77.73%
same,Inhibition,"SARS-CoV2; 0.15 μM, MOI 0.6, Plate 1, hydrochloride",94.81% and 98.18%
same,Inhibition,"SARS-CoV2; 0.15 μM, MOI 0.6, Plate 2, hydrochloride",99.76%
same,Inhibition,"SARS-CoV2; 0.15 μM, title MOI 0.6 (text MOI 1.3), Plate 1, hydrochloride",100.5487% and 99.6%
same,Inhibition,"SARS-CoV2; 0.15 μM, title MOI 0.6 (text MOI 1.3), Plate 2, hydrochloride",95.57% and 98.32%
same,Inhibition,"SARS-CoV2; 0.3 μM, MOI 0.6, Plate 1, hydrochloride",99.8055%
same,Inhibition,"SARS-CoV2; 0.3 μM, MOI 0.6, Plate 2, hydrochloride",99.76%
same,Inhibition,"SARS-CoV2; 0.3 μM, title MOI 0.6 (text MOI 1.3), Plate 1, hydrochloride",99.49%
same,Inhibition,"SARS-CoV2; 0.3 μM, title MOI 0.6 (text MOI 1.3), Plate 2, hydrochloride",97.81%
same,Inhibition,"SARS-CoV2; 0.6 μM, MOI 0.6, Plate 1, hydrochloride",99.76%
same,Inhibition,"SARS-CoV2; 0.6 μM, MOI 0.6, Plate 2, hydrochloride",100.0302%
same,Cytotoxicity,"Vero E6 cells; 0.0047 μM, MOI 0.6, Plate 1",−2.54% and −1.465% and −2.751%
same,Cytotoxicity,"Vero E6 cells; 0.0047 μM, MOI 0.6, Plate 2",−2.54% and −1.465% and −2.751%
same,Cytotoxicity,"Vero E6 cells; 0.0094 μM, MOI 0.6, Plate 1",0.4496% and −3.731% and −1.047%
same,Cytotoxicity,"Vero E6 cells; 0.0094 μM, MOI 0.6, Plate 2",0.4496% and −3.731% and −1.047%
same,Cytotoxicity,"Vero E6 cells; 0.0188 μM, MOI 0.6, Plate 1",−1.946% and −1.045% and −1.4651%
same,Cytotoxicity,"Vero E6 cells; 0.0188 μM, MOI 0.6, Plate 2",−1.946% and −1.045% and −1.4651%
same,Cytotoxicity,"Vero E6 cells; 0.075 μM, MOI 0.6, Plate 1",16.08% and 19.63% and 18.13%
same,Cytotoxicity,"Vero E6 cells; 0.075 μM, MOI 0.6, Plate 2",16.08% and 19.63% and 18.13%
same,Cytotoxicity,"Vero E6 cells; 0.15 μM, MOI 0.6, Plate 1",35.37% and 35.25% and 31.56%
same,Cytotoxicity,"Vero E6 cells; 0.15 μM, MOI 0.6, Plate 2",35.37% and 35.25% and 31.56%
same,Cytotoxicity,"Vero E6 cells; 0.3 μM, MOI 0.6, Plate 1",55.54% and 56.53% and 57.44%
same,Cytotoxicity,"Vero E6 cells; 0.3 μM, MOI 0.6, Plate 2",55.54% and 56.53% and 57.44%
same,Cytotoxicity,"Vero E6 cells; 0.6 μM, MOI 0.6, Plate 1",69.74% and 68.71% and 69.51%
same,Cytotoxicity,"Vero E6 cells; 0.6 μM, MOI 0.6, Plate 2",69.74% and 68.71% and 69.51%
CCN(CC)CCCC(C)Nc1ccnc2cc(Cl)ccc12 (stereo not shown) [chloroquine],IC50,2019-nCoV,1.13 µM
"CN(C)CCCN1c2ccccc2Sc2ccc(Cl)cc21.Cl [Chlorpromazine HCl, chlorpromazine HCl, reference compound]",IC50,SARS-CoV,13 µM
same,Inhibition,"SARS-CoV2; 30 µM, HCl",100.2%
same,Inhibition,"SARS-CoV2; 60 µM, HCl",100.2%
same,IC50,SARS-CoV2; [1],7.2 µM
same,inhibition at 30 µM,SARS-CoV2; [1],100%
same,IC50,MERS-CoV,9.5 µM
